Data reported in ChEMBL document CHEMBL1157566, “Cytotoxic and anti-inflammatory cembranoids from the Dongsha Atoll soft coral Sarcophyton crassocaule” (2010).
Values after ≈ are worked out from the molar mass of the structure shown.

Assays:
Format in all cases: functional
[1] = system: Daoy; test: Cytotoxicity against human DaOY cells by MTT assay; details: read-out: ED50 (the source's name)
[2] = system: RAW264.7; test: Antiinflammatory activity in mouse RAW264.7 cells assessed as inhibition of LPS-stimulated iNOS protein expression by measuring iNOS protein level at 10 uM by Western blot relative to untreated control
[3] = system: MCF7; test: Cytotoxicity against human MCF7 cells by MTT assay; details: read-out: ED50 (the source's name)
[4] = system: WiDr; test: Cytotoxicity against human WiDr cells by MTT assay; details: read-out: ED50 (the source's name)
[5] = system: HEp-2; test: Cytotoxicity against human Hep2 cells by MTT assay; details: read-out: ED50 (the source's name)
[6] = system: RAW264.7; test: Antiinflammatory activity in mouse RAW264.7 cells assessed as inhibition of LPS-stimulated COX2 protein expression by measuring COX2 protein level at 10 uM by Western blot relative to untreated control; parameters: scale not given: the % may be the effect or the level left

| SMILES | EC50 [1] | iNOS protein level relative to control [2] | EC50 [3] | EC50 [4] | EC50 [5] | Activity [6] |
| --- | --- | --- | --- | --- | --- | --- |
| C=C1CC/C=C(\C)[C@H](OC(C)=O)[C@@H]2OC(=O)C(=C)[C@H]2C[C@H](O)[C@@]2(C)CC[C@@H]1O2 [SARCOCRASSOCOLIDE B] | 5.6 µg/mL (≈ 14.3 µM) | 13.3% | 3.2 µg/mL (≈ 8.2 µM) | 3.2 µg/mL (≈ 8.2 µM) | 4.5 µg/mL (≈ 11.5 µM) | – |
| C=C1C(=O)O[C@H]2C/C(C)=C/CCC(=C)[C@H]3CC[C@@](C)(O3)[C@@H](O)C[C@H]12 [SARCOCRASSOCOLIDE C] | 3.2 µg/mL (≈ 9.63 µM) | 4.6% | 2 µg/mL (≈ 6.02 µM) | 1.2 µg/mL (≈ 3.61 µM) | 2.6 µg/mL (≈ 7.82 µM) | – |
| C=C1C(=O)O[C@H]2[C@H]1C[C@@H]1O[C@@]1(C)CC/C=C(\C)CC/C=C(\C)[C@@H]2OC(C)=O | – | 6.2% | – | – | – | – |
| CO[C@@]12[C@H](COC(N)=O)C3=C(C(=O)C(C)=C(N)C3=O)N1C[C@@H]1N[C@@H]12 [MITOMYCIN] | 0.14 µg/mL (≈ 0.419 µM) | – | 0.14 µg/mL (≈ 0.419 µM) | 0.15 µg/mL (≈ 0.449 µM) | 0.07 µg/mL (≈ 0.209 µM) | – |
| C=C1CC/C=C(\C)C[C@@H]2OC(=O)C(=C)[C@H]2C[C@H](O)[C@@]2(C)CC[C@@H]1O2 [SARCOCRASSOCOLIDE D] | 5.4 µg/mL (≈ 16.2 µM) | 7% | 4.1 µg/mL (≈ 12.3 µM) | 1.8 µg/mL (≈ 5.41 µM) | 4 µg/mL (≈ 12 µM) | – |
| C=C1C(=O)O[C@@H]2C/C(C)=C/CC/C(C)=C/CC[C@]3(C)O[C@H]3C[C@@H]12 [SARCOCRASSOLIDE] | – | 1.1% | – | – | – | 3.9% |
| C=C1C(=O)O[C@@H]2[C@@H]1C[C@H](O)[C@@]1(C)CC[C@@H](O1)C(=C)CC/C=C(\C)[C@@H]2OC(C)=O [SARCOCRASSOCOLIDE A] | 8.8 µg/mL (≈ 22.5 µM) | 13.7% | 4.2 µg/mL (≈ 10.8 µM) | 4.2 µg/mL (≈ 10.8 µM) | 6.2 µg/mL (≈ 15.9 µM) | – |
